The source made the active and inactive calls. No cut-off for these calls is given here.
Legend:
Influenza A virus [1] = test: Antiviral activity against Influenza A virus H1N1 (A/Weiss/43) infected in MDCK cells assessed as reduction of viral replication at 0.625 to 100 uM incubated for 72 hrs by TCID50 method; assay type: functional, organism-based; details: dose 0.625-100 µM
[2] = Cytotoxicity against dog MDCK cells assessed as reduction in cell viability incubated for 72 hrs by MTT assay; assay type: toxicity, cell-based, Canis lupus familiaris
Influenza A virus [3] = test: Antiviral activity against Influenza A virus H1N1 (A/Weiss/43) infected in MDCK cells assessed as reduction of viral replication treated for 72 hrs after viral adsorption by TCID50 method; assay type: functional, organism-based
Influenza A virus [4] = test: Antiviral activity against Influenza A virus H3N2 (A/California/2004) infected in MDCK cells assessed as reduction of viral replication incubated for 72 hrs by TCID50 method; assay type: functional, organism-based
Influenza A virus [5] = test: Antiviral activity against Influenza A virus H1N1 (A/Weiss/43)-infected in BALB/c mouse assessed as reduction in lung index at 50 mg/kg/day administered intranasally for 6 days starting from 3 hrs post-viral infection; assay type: functional; details: 144 h, route nas, time 6 day
[6] = Selectivity index, ratio of CC50 for dog MDCK cells to EC50 for antiviral activity against Influenza A virus H1N1 (A/Weiss/43) infected in MDCK cells treated for 72 hrs after viral adsorption; assay type: toxicity, cell-based; details: read-out: Ratio CC50/EC50
[7] = Selectivity index, ratio of CC50 for dog MDCK cells to EC50 for antiviral activity against Influenza A virus H3N2 (A/California/2004) infected in MDCK cells; assay type: toxicity, cell-based; details: read-out: Ratio CC50/EC50
[8] = Selectivity index, ratio of CC50 for dog MDCK cells to EC50 for antiviral activity against Influenza A virus H1N1 (A/Virginia/ATCC2/2009) infected in MDCK cells; assay type: toxicity, cell-based; details: read-out: Ratio CC50/EC50
Influenza A virus [9] = test: Inhibition of Influenza A virus Neuraminidase at 100 to 300 uM pretreated with enzyme for 5 mins followed by fluorogenic substrate addition and measured for 1 hr by fluorescence based analysis; details: dose 100-300 µM, time 65.0 min
Influenza A virus [10] = test: Antiviral activity against Influenza A virus H1N1 (A/Weiss/43)-infected in BALB/c mouse assessed as reduction in pulmonary inflammation at 50 mg/kg/day administered intranasally for 6 days starting from 3 hrs post-viral infection by Hematoxylin-Eosin staining based analysis; assay type: functional, organism-based; details: route nas, time 6.0 day
Influenza A virus [11] = test: Antiviral activity against Influenza A virus H1N1 (A/Virginia/ATCC2/2009) infected in MDCK cells assessed as reduction of viral replication incubated for 72 hrs by TCID50 method; assay type: functional, organism-based
Influenza A virus [12] = test: Antiviral activity against Influenza A virus H1N1 infected in dog MDCK cells assessed as decrease in apoptosis by measuring proportion of necrotic cells at 50 uM measured after 72 hrs by AnnexinV-FITC/PI staining based flow cytometry (reference value: 2.47%); assay type: functional; design: scale not given: the % may be the effect or the level left
Influenza A virus [13] = test: Antiviral activity against Influenza A virus H1N1 (A/Weiss/43)-infected in dog MDCK cells assessed as reduction in oxidative stress by measuring proportion of normal cells at 50 uM treated at 2 hrs post-infection and measured after 36 hrs by DCFH-DA staining based flow cytometry (reference value: 69.4%); assay type: functional; design: scale not given: the % may be the effect or the level left
Influenza A virus [14] = test: Antiviral activity against Influenza A virus H1N1 infected in dog MDCK cells assessed as decrease in apoptosis by measuring proportion of late apoptotic cells at 50 uM measured after 72 hrs by AnnexinV-FITC/PI staining based flow cytometry (reference value: 10.3%); assay type: functional; design: scale not given: the % may be the effect or the level left
Influenza A virus [15] = test: Antiviral activity against Influenza A virus H1N1 infected in dog MDCK cells assessed as decrease in apoptosis by measuring proportion of early apoptotic cells at 50 uM measured after 72 hrs by AnnexinV-FITC/PI staining based flow cytometry (reference value: 24.3%); assay type: functional; design: scale not given: the % may be the effect or the level left
Influenza A virus [16] = test: Antiviral activity against Influenza A virus H1N1 (A/Weiss/43)-infected in dog MDCK cells assessed as reduction in oxidative stress by measuring proportion of cells with excessive ROS accumulation at 50 uM treated at 2 hrs post-infection and measured after 36 hrs by DCFH-DA staining based flow cytometry (reference value: 30.6%); assay type: functional; design: scale not given: the % may be the effect or the level left
Influenza A virus [17] = test: Antiviral activity against Influenza A virus H1N1 infected in dog MDCK cells assessed as decrease in apoptosis by measuring proportion of viable cells at 50 uM measured after 72 hrs by AnnexinV-FITC/PI staining based flow cytometry (reference value: 62.9%); assay type: functional

| SMILES | Activity (Influenza A virus [1]) | CC50 at 72 h [2] | further results |
| --- | --- | --- | --- |
| O=[N+]([O-])c1ccc(S(=O)(=O)N(Cc2ccccc2)C2=CCCc3ccccc32)cc1 | inactive | > 800 µM | – |
| O=[N+]([O-])c1ccc(S(=O)(=O)N(Cc2ccccc2)c2cc3ccccc3c3ccccc23)cc1 | inactive | 726 µM | – |
| COC(=O)c1ccc2c(c1)c(N(Cc1ccccc1)S(=O)(=O)c1ccc(C)cc1)cc1ccccc12 | inactive | 3670 µM | – |
| Cc1ccc(S(=O)(=O)Nc2cc3ccccc3c3cc(C)ccc23)cc1 | inactive | 227 µM | – |
| Cc1ccc(S(=O)(=O)N(Cc2ccccc2)c2cc3ccccc3c3ccc(Cl)cc23)cc1 | inactive | > 800 µM | – |
| Cc1ccc(S(=O)(=O)Nc2cc3ccccc3c3ccc(-c4ccccc4)cc23)cc1 | inactive | > 800 µM | – |
| COc1ccc(S(=O)(=O)N(Cc2ccccc2)c2cccc3ccccc23)cc1 | inactive | > 800 µM | – |
| CCOC(=O)C1=C[C@@H](OC(CC)CC)[C@H](NC(C)=O)[C@@H](N)C1 [OSELTAMIVIR] | – | > 800 µM | EC50 (Influenza A virus [3]): 1.7 µM; EC50 (Influenza A virus [4]): 5.9 µM; inhibition in vivo at 50 mg/kg/day (Influenza A virus [5]): 33.1%; selectivity ratio at 72 h [6]: > 471; selectivity ratio [7]: > 136; selectivity ratio [8]: > 468; inhibition (Influenza A virus [9]): Active; Activity (Influenza A virus [10]): Active; EC50 (Influenza A virus [11]): 1.71 µM |
| C=CCN(c1cc2ccccc2c2ccccc12)S(=O)(=O)c1ccc(C)cc1 | inactive | 61.2 µM | – |
| COc1ccc2c(c1)c(NS(=O)(=O)c1ccc(C)cc1)cc1ccccc12 | – | > 800 µM | EC50 (Influenza A virus [3]): 69.5 µM; selectivity ratio at 72 h [6]: > 11.5 |
| CS(=O)(=O)N(C1=CCCc2ccccc21)c1ccccc1 | – | 345 µM | EC50 (Influenza A virus [3]): 50.8 µM; selectivity ratio at 72 h [6]: 6.78 |
| Cc1ccc(S(=O)(=O)N(c2ccccc2)c2cc3ccccc3c3ccccc23)cc1 | inactive | > 800 µM | – |
| O=S(=O)(c1ccc(Cl)cc1)N(Cc1ccccc1)C1=CCCc2ccccc21 | inactive | > 800 µM | – |
| CCCCN(C1=CCCc2ccccc21)S(=O)(=O)c1ccc(C)cc1 | – | 1170 µM | EC50 (Influenza A virus [3]): 39.8 µM; selectivity ratio at 72 h [6]: 29.3 |
| C=CCN(C1=CCCc2ccccc21)S(=O)(=O)c1ccc(C)cc1 | inactive | 127 µM | – |
| O=C1OCCN1c1cccc2ccccc12 | inactive | > 800 µM | – |
| Cc1ccc(S(=O)(=O)N(C)c2cc3ccccc3c3ccccc23)cc1 | inactive | 3120 µM | – |
| Cc1ccc(S(=O)(=O)N(Cc2ccccc2)c2cc3ccc(C)cc3c3ccccc23)cc1 | inactive | > 800 µM | – |
| Cc1ccc(S(=O)(=O)N(Cc2ccccc2)c2cc3ccccc3c3ccc4ccsc4c23)cc1 | inactive | 1420 µM | – |
| NC(=O)c1ncn([C@@H]2O[C@H](CO)[C@@H](O)[C@H]2O)n1 [RIBAVIRIN] | – | 707 µM | Activity (Influenza A virus [12]): 1.56%; EC50 (Influenza A virus [3]): 13 µM; EC50 (Influenza A virus [4]): 24.8 µM; inhibition in vivo at 50 mg/kg/day (Influenza A virus [5]): 40%; Activity (Influenza A virus [13]): 92.5%; Activity (Influenza A virus [14]): 2.43%; selectivity ratio at 72 h [6]: 54.4; selectivity ratio [7]: 28.5; selectivity ratio [8]: 38.3; Activity (Influenza A virus [15]): 2.76%; Activity (Influenza A virus [16]): 7.48%; Activity (Influenza A virus [17]): 93.2%; Activity (Influenza A virus [10]): Active; EC50 (Influenza A virus [11]): 18.5 µM |
| Cc1ccc(S(=O)(=O)N(c2ccccc2)c2cccc3ccccc23)cc1 | inactive | 1160 µM | – |
| Cc1ccc(S(=O)(=O)N(C)c2cccc3ccccc23)cc1 | inactive | > 800 µM | – |
| Cc1ccc(S(=O)(=O)N(Cc2ccccc2)c2cc3ccccc3c3ccccc23)cc1 | inactive | > 800 µM | – |

| SMILES | Activity (Influenza A virus [1]) | CC50 at 72 h [2] | further results |
| --- | --- | --- | --- |
| CS(=O)(=O)Nc1cc2ccccc2c2ccccc12 | inactive | 73.4 µM | – |
| Cc1ccc(S(=O)(=O)N(Cc2ccccc2)c2cccc3ccccc23)cc1 | inactive | 1370 µM | – |
| O=S(=O)(c1ccc(Cl)cc1)N(Cc1ccccc1)c1cc2ccccc2c2ccccc12 | – | > 800 µM | EC50 (Influenza A virus [3]): 30.1 µM; selectivity ratio at 72 h [6]: > 26.7 |
| O=S(=O)(c1ccc(Cl)cc1)N(Cc1ccccc1)c1cccc2ccccc12 | inactive | > 800 µM | – |
| Cc1ccc(S(=O)(=O)N(Cc2ccccc2)c2cc3ccccc3c3ccc(-c4ccccc4)cc23)cc1 | inactive | > 800 µM | – |
| CS(=O)(=O)N(Cc1ccccc1)c1cc2ccccc2c2ccccc12 | inactive | > 800 µM | – |
| COc1ccc(S(=O)(=O)N(Cc2ccccc2)C2=CCCc3ccccc32)cc1 | inactive | > 800 µM | – |
| COc1ccc(S(=O)(=O)N(Cc2ccccc2)c2cc3ccccc3c3ccccc23)cc1 | inactive | 288 µM | – |
| Cc1ccc(S(=O)(=O)N(Cc2ccccc2)c2cc3ccccc3c3ccc(C)cc23)cc1 | – | > 800 µM | EC50 (Influenza A virus [3]): 36.4 µM; selectivity ratio at 72 h [6]: > 22 |
| Cc1ccc(S(=O)(=O)N(Cc2ccccc2)c2cc3ccccc3c3cc(C)ccc23)cc1 | inactive | > 800 µM | – |
| Cc1ccc(S(=O)(=O)N(Cc2ccccc2)C2=CCOc3ccccc32)cc1 | – | 1270 µM | EC50 (Influenza A virus [3]): 76.6 µM; selectivity ratio at 72 h [6]: 16.6 |
| O=C1OCCN1C1=CCCc2ccccc21 | inactive | 301 µM | – |
| CCCCN(c1cccc2ccccc12)S(=O)(=O)c1ccc(C)cc1 | inactive | 311 µM | – |
| Cc1ccc(S(=O)(=O)N(Cc2ccccc2)C2=CCCc3ccccc32)cc1 | inactive | 1170 µM | – |
| Cc1ccc(S(=O)(=O)N(Cc2ccccc2)c2cc3ccccc3c3ccc(F)cc23)cc1 | inactive | 1040 µM | – |
| Cc1ccc(S(=O)(=O)N(Cc2ccccc2)c2cc3ccccc3c3ccc4ccccc4c23)cc1 | inactive | > 800 µM | – |
| COc1ccc2c(c1)c(N(Cc1ccccc1)S(=O)(=O)c1ccc(C)cc1)cc1ccccc12 | – | > 800 µM | EC50 (Influenza A virus [3]): 21.8 µM; selectivity ratio at 72 h [6]: > 36.8 |
| O=C1OCCN1c1cc2ccccc2c2ccccc12 | inactive | 212 µM | – |
| C=CCN(c1cccc2ccccc12)S(=O)(=O)c1ccc(C)cc1 | inactive | 620 µM | – |
| Cc1ccc(S(=O)(=O)N(Cc2ccccc2)c2cc3ccccc3c3cc(Cl)ccc23)cc1 | inactive | 2330 µM | – |
| CC(=O)c1ccc2c(c1)c(N(Cc1ccccc1)S(=O)(=O)c1ccc(C)cc1)cc1ccccc12 | inactive | 382 µM | – |
| Cc1ccc(S(=O)(=O)N(C2=CCCc3ccccc32)c2ccccc2)cc1 | inactive | 1210 µM | – |
